Source: article PMC8199213, “Pharmacophore-Based Virtual Screening of Novel Competitive Inhibitors of the Neurodegenerative Disease Target Kynurenine-3-Monooxygenase” (Molecules, 2021)

Tests used:
[1] = target: T1, human kynurenine-3-monooxygenase (hKMO) (Homo sapiens, UniProt O15229); experiment: KMO NADPH-consumption assay (BPS Bioscience KMO Screening Kit), dose-response; positive control; type: biochemical
T1 construct: gene KMO; purified KMO protein with C-terminal His-FLAG-tag

[2] = target: T1, human kynurenine-3-monooxygenase (hKMO); experiment: KMO NADPH-consumption assay; […] inhibition at […], […] at […]; type: biochemical

T1 sequence (O15229 whole entry): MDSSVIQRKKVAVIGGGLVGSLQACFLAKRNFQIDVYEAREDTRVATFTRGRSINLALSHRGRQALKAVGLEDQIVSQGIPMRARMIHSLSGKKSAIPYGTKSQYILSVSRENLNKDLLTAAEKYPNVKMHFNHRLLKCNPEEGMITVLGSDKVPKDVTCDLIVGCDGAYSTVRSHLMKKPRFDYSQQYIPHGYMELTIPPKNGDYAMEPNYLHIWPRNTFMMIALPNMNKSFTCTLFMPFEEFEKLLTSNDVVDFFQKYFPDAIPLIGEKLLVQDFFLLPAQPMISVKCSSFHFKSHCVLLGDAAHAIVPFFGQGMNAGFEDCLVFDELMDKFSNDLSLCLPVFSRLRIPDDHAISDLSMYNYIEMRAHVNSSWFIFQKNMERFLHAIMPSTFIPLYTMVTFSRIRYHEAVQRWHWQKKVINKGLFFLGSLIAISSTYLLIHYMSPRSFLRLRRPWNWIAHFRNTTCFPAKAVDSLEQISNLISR

| IC50 [2] [nM] | Compound | IC50 [1] [nM] |
| --- | --- | --- |
|  | COc1ccc(S(=O)(=O)Nc2nc(-c3cccc([N+](=O)[O-])c3)cs2)cc1OC [Ro 61-8084] | 727 ± 88 |
| < 10000 | Cc1cc2nc(CCC(=O)O)c(=O)[nH]c2cc1C [VS6, F6548-0495] |  |
